Reference: US9295626B2, “Compositions comprising isosorbide monoester and N-hydroxypyridones” (Clariant International Ltd., priority 2011, dated 2016)

Experiments:
[1] = tested on: Aspergillus brasiliensis; assay: Antimicrobial efficacy, MIC by agar dilution; format: cell-based; conditions: Sabouraud 4% dextrose agar pH 5.6
Excerpt: (§1) Below, the antimicrobial efficacy of a composition according to the invention consisting of 50% by weight of isorbide caprylate 1 and 50% by weight of a 10% by weight strength solution of the monoethanolamine salt of 4-methyl-6-(2,4,4-trimethylpentyl)-1-hydroxy-2-pyridone (Octopirox®, 100% by weight strength, Clariant) in butyl polyglycol against bacteria, fungi and yeasts is examined (hereinbelow, the composition is referred to as “composition A”). For the tests with bacteria, composition A was diluted with butyl polyglycol and then, at 50° C., added to liquid CASO agar (casein-peptone agar) buffered to pH 7 (+/−0.2) in various concentrations (hereinbelow referred to as compositions B1, B2, etc.). For the tests with fungi and yeasts, composition A was diluted with butyl polyglycol and then added to liquid Sabouraud 4% dextrose agar buffered to pH 5.6 (+/−0.2) in various concentrations (hereinbelow referred to as compositions PH1, PH2, etc.). The compositions B1, B2, etc. and PH1, PH2 etc. were each poured into Petri dishes and each inoculated with identical amounts of bacteria, fungi and yeasts. The minimum inhibitory concentration (MIC) is the concentration at which inhibition of the growth of the bacteria, fungi and yeasts in the compositions B1, B2, etc. and PH1, PH2, etc. occurs.
(§2) The minimum inhibitory concentrations for the pure substances isosorbide caprylate 1 and Octopirox® were determined analogously.
(§3) The values determined for the minimum inhibitory concentrations “MIC mixture”, stated in Table 1 below, are based on the concentrations of composition A.
(§4) The values determined for the minimum inhibitory concentrations “QA” and “QB”, stated in Table 1 below, have already been corrected for the dilution effect of the butyl polyglycol.
(§5) Kull et al., Applied Microbiology 1961, 9, 538 using the formula below: SE=Qa/QA+Qb/QB where • Qa is the minimum inhibitory concentration of isosorbide caprylate 1 in the mixture employed, • QA is the minimum inhibitory concentration of isosorbide caprylate 1, • Qb is the minimum inhibitory concentration of Octopirox® in the mixture employed and • QB is the minimum inhibitory concentration of Octopirox®.
(§6) The values for Qa and Qb are determined from the values for the mixtures (“MIC mixture”) by multiplying the minimum inhibitory concentrations determined for Qa with the factor 0.5 and for Qb with the factor 0.05, because of the proportions of the ingredients—50% by weight of isosorbide caprylate 1 and 50% by weight of a 10% by weight strength solution of Octopirox® in butyl polyglycol—in composition A according to the invention examined.
(§7) If an SE value>1 is obtained, an antagonistic effect is present.
(§8) Analogously to the determination of the antimicrobial activity according to the above example B), the antimicrobial activity of a mixture comprising, firstly, 89.6% by weight of isosorbide dicaprylate and 9.4% by weight of isosorbide monocaprylate (remainder: 1% by weight) (hereinbelow referred to as “isosorbide dicaprylate”) and, secondly, pure isosorbide was determined in further test series.

[2] = tested on: Aspergillus terreus; assay: Antimicrobial efficacy, MIC by agar dilution; format: cell-based; conditions: Sabouraud 4% dextrose agar pH 5.6
Excerpt: as §1, §2, §3, §4, §5, §6, §7, §8

[3] = tested on: Candida albicans; assay: Antimicrobial efficacy, MIC by agar dilution; format: cell-based; conditions: Sabouraud 4% dextrose agar pH 5.6
Excerpt: as §1, §2, §3, §4, §5, §6, §7, §8

[4] = tested on: Citrobacter freundii; assay: Antimicrobial efficacy, MIC by agar dilution; format: cell-based; conditions: CASO agar pH 7
Excerpt: as §1, §2, §3, §4, §5, §6, §7, §8

[5] = tested on: Enterobacter aerogenes; assay: Antimicrobial efficacy, MIC by agar dilution; format: cell-based; conditions: CASO agar pH 7
Excerpt: as §1, §2, §3, §4, §5, §6, §7, §8

[6] = tested on: Escherichia coli; assay: Antimicrobial efficacy, MIC by agar dilution; format: cell-based; conditions: CASO agar pH 7
Excerpt: as §1, §2, §3, §4, §5, §6, §7, §8

[7] = tested on: Fusarium solani; assay: Antimicrobial efficacy, MIC by agar dilution; format: cell-based; conditions: Sabouraud 4% dextrose agar pH 5.6
Excerpt: as §1, §2, §3, §4, §5, §6, §7, §8

[8] = tested on: Klebsiella pneumoniae; assay: Antimicrobial efficacy, MIC by agar dilution; format: cell-based; conditions: CASO agar pH 7
Excerpt: as §1, §2, §3, §4, §5, §6, §7, §8

[9] = tested on: Penicillium funicolosium; assay: Antimicrobial efficacy, MIC by agar dilution; format: cell-based; conditions: Sabouraud 4% dextrose agar pH 5.6
Excerpt: as §1, §2, §3, §4, §5, §6, §7, §8

[10] = tested on: Penicillium minioluteum; assay: Antimicrobial efficacy, MIC by agar dilution; format: cell-based; conditions: Sabouraud 4% dextrose agar pH 5.6
Excerpt: as §1, §2, §3, §4, §5, §6, §7, §8

[11] = tested on: Proteus vulgaris; assay: Antimicrobial efficacy, MIC by agar dilution; format: cell-based; conditions: CASO agar pH 7
Excerpt: as §1, §2, §3, §4, §5, §6, §7, §8

[12] = tested on: Pseudomonas aeruginosa; assay: Antimicrobial efficacy, MIC by agar dilution; format: cell-based; conditions: CASO agar pH 7
Excerpt: as §1, §2, §3, §4, §5, §6, §7, §8

[13] = tested on: Pseudomonas oleovorans; assay: Antimicrobial efficacy, MIC by agar dilution; format: cell-based; conditions: CASO agar pH 7
Excerpt: as §1, §2, §3, §4, §5, §6, §7, §8

[14] = tested on: Staphylococcus aureus; assay: Antimicrobial efficacy, MIC by agar dilution; format: cell-based; conditions: CASO agar pH 7
Excerpt: as §1, §2, §3, §4, §5, §6, §7, §8

[15] = tested on: bacteria, fungi and yeasts; conditions: general statement, no test described, cited from earlier work
[16] = tested on: bacteria, fungi and yeasts; assay: Antimicrobial activity overall; format: cell-based
Excerpt: Below, the antimicrobial efficacy of a composition according to the invention consisting of 50% by weight of isorbide caprylate 1 and 50% by weight of a 10% by weight strength solution of the monoethanolamine salt of 4-methyl-6-(2,4,4-trimethylpentyl)-1-hydroxy-2-pyridone (Octopirox®, 100% by weight strength, Clariant) in butyl polyglycol against bacteria, fungi and yeasts is examined (hereinbelow, the composition is referred to as “composition A”). For the tests with bacteria, composition A was diluted with butyl polyglycol and then, at 50° C., added to liquid CASO agar (casein-peptone agar) buffered to pH 7 (+/−0.2) in various concentrations (hereinbelow referred to as compositions B1, B2, etc.). […]
The minimum inhibitory concentrations for the pure substances isosorbide caprylate 1 and Octopirox® were determined analogously. […]
as §8

[17] = MIC of Octopirox alone, corrected for butyl polyglycol dilution
[18] = MIC of Octopirox in the mixture (MIC mixture x 0.05)

## Cc1cc(CC(C)CC(C)(C)C)n(O)c(=O)c1.NCCO (centres unmarked) [Octopirox®, monoethanolamine salt of 4-methyl-6-(2,4,4-trimethylpentyl)-1-hydroxy-2-pyridone]
[1]; [17]
  OB, meas.: 20 ppm
[1]; [18]
  Ob, calc.: 10 ppm
[2]; [17]
  OB, meas.: 20 ppm
[2]; [18]
  Ob, calc.: 10 ppm
[3]; [17]
  OB, meas.: 20 ppm
[3]; [18]
  Ob, calc.: 10 ppm
[4]; [17]
  OB, meas.: 50 ppm
[4]; [18]
  Ob, calc.: 25 ppm
[5]; [17]
  OB, meas.: 100 ppm
[5]; [18]
  Ob, calc.: 25 ppm
[6]; [17]
  OB, meas.: 25 ppm
[6]; [18]
  Ob, calc.: 25 ppm
[7]; [17]
  OB, meas.: 20 ppm
[7]; [18]
  Ob, calc.: 10 ppm
[8]; [17]
  OB, meas.: 50 ppm
[8]; [18]
  Ob, calc.: 25 ppm
[9]; [17]
  OB, meas.: 20 ppm
[9]; [18]
  Ob, calc.: 10 ppm
[10]; [17]
  OB, meas.: 20 ppm
[10]; [18]
  Ob, calc.: 10 ppm
[11]; [17]
  OB, meas.: 25 ppm
[11]; [18]
  Ob, calc.: 12.5 ppm
[12]; [17]
  OB, meas.: 25 ppm
[12]; [18]
  Ob, calc.: 25 ppm
[13]; [17]
  OB, meas.: 50 ppm
[13]; [18]
  Ob, calc.: 25 ppm
[14]; [17]
  OB, meas.: 25 ppm
[14]; [18]
  Ob, calc.: 25 ppm

## CCCCCCCC(=O)O [caprylic acid]
[15]
  antimicrobial efficacy: antimicrobially effective
[15]; pH of 6 or above
  antimicrobial activity at a pH of 6 or above: no antimicrobial activity

## O[C@@H]1CO[C@H]2[C@@H]1OC[C@@H]2O [isosorbide]
[16]; all bacteria, fungi and yeasts of Table 2
  antimicrobial activity (summary of Table 2): neither isosorbide nor isosorbide dicaprylate are antimicrobially active

## isosorbide monocaprylate
[16]; concluded from QA of isosorbide caprylate 1 and inactivity of its other constituents
  antimicrobial activity (concluded): significant antimicrobial activity
